Data on three compounds can be found in ChEMBL document CHEMBL1221178, “Allosteric control of an ionotropic glutamate receptor with an optical switch” (Nat Chem Biol, 2006).

The source made the active and inactive calls. The calls are words filed in the database; no cut-off is given here.

What all share (assay type): functional, cell-based
Assay [1] relates to Glutamate receptor ionotropic, kainate 2 (Homo sapiens), Q13002 [L439C]. Briefly: Agonist activity at iGluR6 L439C mutant expressed in human HEK293 cells assessed as increase in intracellular Ca2+ levels illuminated at 500 nm wavelength by […] staining based fluorimetric method.
Sequence of Glutamate receptor ionotropic, kainate 2 (Homo sapiens), Q13002 [L439C] (Q13002 whole entry L439C): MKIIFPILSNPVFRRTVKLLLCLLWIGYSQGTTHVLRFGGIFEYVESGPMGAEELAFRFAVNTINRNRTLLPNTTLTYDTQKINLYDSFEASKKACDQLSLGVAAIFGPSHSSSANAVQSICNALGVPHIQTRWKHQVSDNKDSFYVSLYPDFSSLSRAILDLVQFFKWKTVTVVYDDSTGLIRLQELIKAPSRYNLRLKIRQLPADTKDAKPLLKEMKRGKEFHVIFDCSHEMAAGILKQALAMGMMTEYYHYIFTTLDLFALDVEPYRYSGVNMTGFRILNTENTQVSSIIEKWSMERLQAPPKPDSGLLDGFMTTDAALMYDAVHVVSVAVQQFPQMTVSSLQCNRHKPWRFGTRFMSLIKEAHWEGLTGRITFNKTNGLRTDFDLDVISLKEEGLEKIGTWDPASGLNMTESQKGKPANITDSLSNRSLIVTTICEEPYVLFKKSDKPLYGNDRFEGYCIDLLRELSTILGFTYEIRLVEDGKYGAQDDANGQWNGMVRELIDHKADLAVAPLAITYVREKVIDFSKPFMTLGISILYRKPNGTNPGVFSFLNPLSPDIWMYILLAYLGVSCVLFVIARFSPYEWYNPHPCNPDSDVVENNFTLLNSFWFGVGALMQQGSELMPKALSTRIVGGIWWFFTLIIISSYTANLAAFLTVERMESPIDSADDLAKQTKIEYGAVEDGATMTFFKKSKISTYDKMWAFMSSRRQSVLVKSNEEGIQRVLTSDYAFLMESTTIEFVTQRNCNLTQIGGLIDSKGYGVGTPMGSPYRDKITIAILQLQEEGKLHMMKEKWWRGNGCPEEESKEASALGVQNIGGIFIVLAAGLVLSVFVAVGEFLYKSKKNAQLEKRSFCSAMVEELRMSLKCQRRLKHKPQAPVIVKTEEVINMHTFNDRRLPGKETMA
Assay [2] shares this test system. Briefly: Agonist activity at iGluR6 L439C mutant expressed in human HEK293 cells assessed as increase in intracellular Ca2+ levels illuminated at 380 nm wavelength by […] staining based fluorimetric method.
Assay [3] shares this test system. Briefly: Agonist activity at MAG conjugated light activated iGluR6 L439C mutant expressed in human HEK293 cells assessed as increase inward currents by whole cell patch clamp method.

For the compound `N[C@@H](C[C@@H](CCCC(=O)NCC(=O)Nc1ccc(/N=N/c2ccc(NC(=O)CN3C(=O)C=CC3=O)cc2)cc1)C(=O)O)C(=O)O`, the outcome in assay [1] was inactive. In assay [2], the result was Active. Turning to `N[C@@H](C[C@@H](CCCC(=O)NCC(=O)Nc1ccccc1)C(=O)O)C(=O)O`, in assay [3], the outcome was Active.

Consider `N[C@@H](CCC(=O)O)C(=O)O`, for which the result in assay [3] was Active.
